Results reported in patent EP1261344B1, “USE OF INDOLOQUINOXALINES FOR THE TREATMENT OF MULTIPLE SKLEROSIS” (OxyPharma AB, priority 2000, dated 2001).

How the values were obtained:
[1] = Acute toxicity in rat; settings: in vivo
[2] = tested on: mice; experiment: Chronic toxicity in mice, up to 270 days; format: in vivo; settings: tested up to 270 days on mice
[3] = tested on: EAE (experimental autoimmune encephalomyelitis) model; experiment: EAE (experimental autoimmune encephalomyelitis) rat model, clinical score; format: in vivo, Lewis rats; settings: for onset is delayed / recovery starts earlier: Figure 2, versus control
[4] = Acute toxicity in rabbit, cutaneous; settings: in vivo, topical or ocular, read-out: NOEL (No Observable Effect Level)

Q: With `Cc1cc2nc3c4ccccc4n(CCN(C)C)c3nc2cc1C` [B-220] as the molecule, how does the NOAEL ([1]; intravenous, read-out: NOEL (No Observable Effect Level)) read?
A: 12.5 mg/kg

Q: And the LD50 ([1]; iv)?
A: > 100 mg/kg

Q: And the LD50 ([1]; po)?
A: > 800 mg/kg

Q: What about the chronic toxicity [2] of the same molecule?
A: has not induced toxicity

Q: And the “reduces the CNS symptoms” value ([3]; Figure 1, 6 mg/animal daily, clinical score scale 0-5, versus negative control)?
A: 2/3

Q: And the onset is delayed ([3]; 6 mg/animal)?
A: ~2 days

Q: And the recovery starts earlier ([3]; 6 mg/animal)?
A: ~2 days

Q: What about the onset is delayed ([3]; 12 mg/animal) of the same molecule?
A: ~4 days

Q: And the recovery starts earlier ([3]; 12 mg/animal)?
A: ~3 days

Q: And the NOAEL [4]?
A: 200 mg/kg
